Assay results published in patent US5264433A, “Benzodiazepine derivatives” (Fujisawa Pharmaceutical Co., Ltd., priority 1988, dated 1993).

Assays:
CCK receptor = CCK receptor antagonism in isolated fundic circular muscle from guinea pig stomach; details: test compound 1×10^-5 M added 5 minutes before CCK-8 (3.2×10^-7 M); isolated circular muscle strip
Experimental: CCK receptor antagonism in isolated fundic circular muscle from guinea pig stomach
The strip of circular muscle suspended in 25 ml organ bath containing Kreb's bicarbonate solution (NaCl 118 mM, KCl 4.8 mM, KH2 PO4 1.2 mM, MgSO4 1.2 mM, CaCl2 2.5 mM, NaHCO3 25 mM, glucose 11 mM and bovine serum albumin 0.1%) maintained at 37° C. and gassed with 95% O2 and 5% CO2.
The strip was placed under an initial tension of 0.5 g and equilibrated for 60 minutes during which the bath volume was replaced every 15 minutes. Isometric contraction was measured using a force transducer. CCK-8 (3.2×10^-7 M) was added to the bathing solution and the contractile force was measured. After washing out CCK-8, test compound A (1×10^-5 M) was added. 5 minutes later, CCK-8 was added and the contractile force was measured. CCK antagonism was calculated by comparing the contractile force induced by CCK in the absence or presence of test compound A.

CCK-A receptor = CCK-A receptor antagonist selectivity (statement only, no method); details: statement in words, no data

SMILES: O=C(NC1N=C(c2ccccc2)c2ccccc2N(CCO)C1=O)c1cc2ccccc2[nH]1 (racemic) [test compound A, (3RS)-1,3-Dihydro-1-(2-hydroxyethyl)-3-(2-indolylcarbonylamino)-5-phenyl-2H-1,4-benzodiazepine-2-one]
- Inhibition (%) of CCK-induced contractile force (CCK receptor): 91%

SMILES: O=C(N[C@H]1N=C(c2ccccc2)c2ccccc2N(Cc2nnn[nH]2)C1=O)c1cc2ccccc2[nH]1 [Example 42, (3S)-1,3-dihydro-3-(2-indolylcarbonylamino)-5-phenyl-1-[(1 H-tetrazol-5-yl)-methyl]-2H-1,4-benzodiazepin-2-one]
- CCK-A receptor antagonist selectivity (CCK-A receptor): selective CCK-A receptor antagonist
